Measurements from patent US20250381157A1, “ANTIMICROBIAL COMPOUNDS” (priority 2022, published 2025).
Values joined by “and” are separate entries in the source; they are usually repeats but may differ in a detail not shown here. Identical values can stand only once. Like-named read-outs stand apart in the source and are kept apart here.

How the values were obtained:
[1] = test system: Enterotoxigenic Escherichia coli (ETEC) (ATCC ® 35401 ™, H10407); type: in vivo, mouse; conditions: for Body weights (Final Day) (Mean ± SD) / Log10 CFU/g [Mean ± SD] Blood / Log10 CFU/g [Mean ± SD] Kidneys / Log10 CFU/g [Mean ± SD] Liver / Log10 CFU/g [Mean ± SD] Spleen / Kidney -Raw data on Vancomycin (32 μg/ml) plates / Liver-Raw data on Vancomycin (32 μg/ml) plates / Spleen -Raw data on Vancomycin (32 μg/ml) plates / Blood -Raw data on Vancomycin (32 μg/ml) plates - on day 7 PI: PO, twice daily(q12h), 9 days; for effect on bacterial translocation: presence of cyclophosphamide, FIG. 4; for Clinical observation (Mean Score) Hunched Posture / Clinical observation (Mean Score) Lethergy / Clinical observation (Mean Score) Rough coat / Clinical observation (Mean Score) hyperpnea: 0=absent 1=present; for Kidney -Raw data on Vancomycin (32 μg/ml) plates / Liver-Raw data on Vancomycin (32 μg/ml) plates / Spleen -Raw data on Vancomycin (32 μg/ml) plates / Blood -Raw data on Vancomycin (32 μg/ml) plates - on day 7 PI: individual animals
Procedure: FIG. 3: Schematic protocol for neutropenia mouse model
A schematic of the experimental model is depicted in FIG. 3.
That experiment was performed in the presence of cyclophosphamide, which is known to cause febrile neutropenia due to translocation of bacteria to vital organs.

[2] = biological target: T1, recombinant human HDAC2 (Homo sapiens, UniProt Q92769); assay: biochemical
T1 construct: purchased BPS 50002
Procedure: All of the compounds were dissolved in DMSO. A series of dilutions of the compounds were prepared with 10% DMSO in HDAC assay buffer and 5 μl of the dilution was added to a 50 μl reaction so that the final concentration of DMSO was 1% in all of reactions. The compounds were pre-incubated in duplicate at RT for 30 minutes in a mixture containing HDAC assay buffer, 5 μg BSA, HDAC enzyme and a test compound. After 30 minutes, the enzymatic reactions were initiated by the addition of HDAC substrate to a final concentration of 20 μM or 2 μM. The enzymatic reaction proceeded for 30 minutes at 37° C. After enzymatic reactions, 50 μl of 2×HDAC Developer was added to each well for the HDAC enzymes and the plate was incubated at room temperature for an additional 15 minutes. Fluorescence intensity was measured at an excitation of 360 nm and an emission of 460 nm using a Tecan Infinite M1000 microplate reader.
HDAC activity assays were performed in duplicates at each concentration. The fluorescent intensity data were analyzed using the computer software, Graphpad Prism. […] The percent activity in the presence of each compound was calculated according to the following equation: % activity=(F−Fb)/(Ft−Fb), where F=the fluorescent intensity in the presence of the compound. […] The IC50 value was determined by the concentration causing a half-maximal percent activity.

[3] = Dose escalation toxicity and MTD in mouse; conditions: in vivo
[4] = Day (0), 5 mg/kg PO q12h 9 days
[5] = Day (0), 50 mg/kg PO q12h 9 days
[6] = Day (1), 5 mg/kg PO q12h 9 days
[7] = Day (1), 50 mg/kg PO q12h 9 days
[8] = Day (2), 5 mg/kg PO q12h 9 days
[9] = Day (2), 50 mg/kg PO q12h 9 days
[10] = Day (3), 5 mg/kg PO q12h 9 days
[11] = Day (3), 50 mg/kg PO q12h 9 days
[12] = Day (4), 5 mg/kg PO q12h 9 days
[13] = Day (4), 50 mg/kg PO q12h 9 days
[14] = Day (5), 5 mg/kg PO q12h 9 days
[15] = Day (5), 50 mg/kg PO q12h 9 days
[16] = Day (6), 5 mg/kg PO q12h 9 days
[17] = Day (6), 50 mg/kg PO q12h 9 days
[18] = Day (7), 5 mg/kg PO q12h 9 days
[19] = Day (7), 50 mg/kg PO q12h 9 days
[20] = Day (−1), 5 mg/kg PO q12h 9 days
[21] = Day (−1), 50 mg/kg PO q12h 9 days
[22] = Day (−2), 5 mg/kg PO q12h 9 days
[23] = Day (−2), 50 mg/kg PO q12h 9 days

T1 sequence (Q92769 whole entry): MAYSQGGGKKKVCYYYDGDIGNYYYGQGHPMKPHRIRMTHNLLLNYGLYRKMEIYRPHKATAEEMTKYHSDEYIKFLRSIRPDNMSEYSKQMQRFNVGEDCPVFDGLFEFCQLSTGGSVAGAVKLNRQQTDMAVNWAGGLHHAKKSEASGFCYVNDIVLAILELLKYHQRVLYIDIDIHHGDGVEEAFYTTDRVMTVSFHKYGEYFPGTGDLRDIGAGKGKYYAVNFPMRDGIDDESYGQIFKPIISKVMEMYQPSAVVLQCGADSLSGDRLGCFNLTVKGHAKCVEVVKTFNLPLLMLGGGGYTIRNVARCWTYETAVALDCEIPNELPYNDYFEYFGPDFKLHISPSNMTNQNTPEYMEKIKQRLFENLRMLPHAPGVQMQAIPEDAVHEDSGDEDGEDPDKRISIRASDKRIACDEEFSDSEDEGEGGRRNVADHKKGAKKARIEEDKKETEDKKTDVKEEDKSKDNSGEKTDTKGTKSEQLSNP

SMILES: C#CCOCC(=O)Nc1ccc(C(=O)Nc2ccccc2N)cc1 [Compound 1, N-(2-aminophenyl)-4-{2-[(prop-2-yn-1-yl)oxy]acetamido}benzamide]
- Body weights (Final Day) (Mean ± SD) ([1]; 5 mg/kg): 25.2 ± 1.69
- Log10 CFU/g [Mean ± SD] Blood ([1]; 5 mg/kg): 1.9 ± 0 Log10 CFU/g
- Log10 CFU/g [Mean ± SD] Kidneys ([1]; 5 mg/kg): 2.83 ± 0.29^ns Log10 CFU/g
- Log10 CFU/g [Mean ± SD] Liver ([1]; 5 mg/kg): 2.58 ± 0.32 Log10 CFU/g
- Log10 CFU/g [Mean ± SD] Spleen ([1]; 5 mg/kg): 3.05 ± 0.3^ns Log10 CFU/g
- effect on bacterial translocation ([1]; 5 mg/kg): little to no effect
- Body weights (Final Day) (Mean ± SD) ([1]; 50 mg/kg): 26.1 ± 1.20
- Log10 CFU/g [Mean ± SD] Blood ([1]; 50 mg/kg): BLOQ
- Log10 CFU/g [Mean ± SD] Kidneys ([1]; 50 mg/kg): BLOQ
- Log10 CFU/g [Mean ± SD] Liver ([1]; 50 mg/kg): BLOQ
- Log10 CFU/g [Mean ± SD] Spleen ([1]; 50 mg/kg): BLOQ
- effect on bacterial translocation ([1]; 50 mg/kg): inhibits it completely
- Clinical observation (Mean Score) Hunched Posture [1, 4]: 0.0
- Clinical observation (Mean Score) Lethergy [1, 4]: 0.0
- Clinical observation (Mean Score) Rough coat [1, 4]: 0.0
- Clinical observation (Mean Score) hyperpnea [1, 4]: 0.0
- Clinical observation (Mean Score) Hunched Posture [1, 5]: 0.0
- Clinical observation (Mean Score) Lethergy [1, 5]: 0.0
- Clinical observation (Mean Score) Rough coat [1, 5]: 0.0
- Clinical observation (Mean Score) hyperpnea [1, 5]: 0.0
- Clinical observation (Mean Score) Hunched Posture [1, 6]: 0.0
- Clinical observation (Mean Score) Lethergy [1, 6]: 0.0
- Clinical observation (Mean Score) Rough coat [1, 6]: 0.0
- Clinical observation (Mean Score) hyperpnea [1, 6]: 0.0
- Clinical observation (Mean Score) Hunched Posture [1, 7]: 0.0
- Clinical observation (Mean Score) Lethergy [1, 7]: 0.0
- Clinical observation (Mean Score) Rough coat [1, 7]: 0.0
- Clinical observation (Mean Score) hyperpnea [1, 7]: 0.0
- Clinical observation (Mean Score) Hunched Posture [1, 8]: 0.0
- Clinical observation (Mean Score) Lethergy [1, 8]: 0.0
- Clinical observation (Mean Score) Rough coat [1, 8]: 0.0
- Clinical observation (Mean Score) hyperpnea [1, 8]: 0.0
- Clinical observation (Mean Score) Hunched Posture [1, 9]: 0.0
- Clinical observation (Mean Score) Lethergy [1, 9]: 0.0
- Clinical observation (Mean Score) Rough coat [1, 9]: 0.0
- Clinical observation (Mean Score) hyperpnea [1, 9]: 0.0
- Clinical observation (Mean Score) Hunched Posture [1, 10]: 0.0
- Clinical observation (Mean Score) Lethergy [1, 10]: 0.0
- Clinical observation (Mean Score) Rough coat [1, 10]: 0.0
- Clinical observation (Mean Score) hyperpnea [1, 10]: 0.0
- Clinical observation (Mean Score) Hunched Posture [1, 11]: 0.0
- Clinical observation (Mean Score) Lethergy [1, 11]: 0.0
- Clinical observation (Mean Score) Rough coat [1, 11]: 0.0
- Clinical observation (Mean Score) hyperpnea [1, 11]: 0.0
- Clinical observation (Mean Score) Hunched Posture [1, 12]: 0.0
- Clinical observation (Mean Score) Lethergy [1, 12]: 0.0
- Clinical observation (Mean Score) Rough coat [1, 12]: 0.0
- Clinical observation (Mean Score) hyperpnea [1, 12]: 0.0
- Clinical observation (Mean Score) Hunched Posture [1, 13]: 0.0
- Clinical observation (Mean Score) Lethergy [1, 13]: 0.0
- Clinical observation (Mean Score) Rough coat [1, 13]: 0.0
- Clinical observation (Mean Score) hyperpnea [1, 13]: 0.0
- Clinical observation (Mean Score) Hunched Posture [1, 14]: 0.0
- Clinical observation (Mean Score) Lethergy [1, 14]: 0.1
- Clinical observation (Mean Score) Rough coat [1, 14]: 0.5
- Clinical observation (Mean Score) hyperpnea [1, 14]: 0.0
- Clinical observation (Mean Score) Hunched Posture [1, 15]: 0.0
- Clinical observation (Mean Score) Lethergy [1, 15]: 0.0
- Clinical observation (Mean Score) Rough coat [1, 15]: 0.0
- Clinical observation (Mean Score) hyperpnea [1, 15]: 0.0
- Clinical observation (Mean Score) Hunched Posture [1, 16]: 0.0
- Clinical observation (Mean Score) Lethergy [1, 16]: 0.4
- Clinical observation (Mean Score) Rough coat [1, 16]: 0.7
- Clinical observation (Mean Score) hyperpnea [1, 16]: 0.0
- Clinical observation (Mean Score) Hunched Posture [1, 17]: 0.0
- Clinical observation (Mean Score) Lethergy [1, 17]: 0.0
- Clinical observation (Mean Score) Rough coat [1, 17]: 0.4
- Clinical observation (Mean Score) hyperpnea [1, 17]: 0.0
- Clinical observation (Mean Score) Hunched Posture [1, 18]: 0.0
- Clinical observation (Mean Score) Lethergy [1, 18]: 0.5
- Clinical observation (Mean Score) Rough coat [1, 18]: 1.0
- Clinical observation (Mean Score) hyperpnea [1, 18]: 0.0
- Clinical observation (Mean Score) Hunched Posture [1, 19]: 0.0
- Clinical observation (Mean Score) Lethergy [1, 19]: 0.0
- Clinical observation (Mean Score) Rough coat [1, 19]: 0.4
- Clinical observation (Mean Score) hyperpnea [1, 19]: 0.0
- Clinical observation (Mean Score) Hunched Posture [1, 20]: 0.0
- Clinical observation (Mean Score) Lethergy [1, 20]: 0.0
- Clinical observation (Mean Score) Rough coat [1, 20]: 0.0
- Clinical observation (Mean Score) hyperpnea [1, 20]: 0.0
- Clinical observation (Mean Score) Hunched Posture [1, 21]: 0.0
- Clinical observation (Mean Score) Lethergy [1, 21]: 0.0
- Clinical observation (Mean Score) Rough coat [1, 21]: 0.0
- Clinical observation (Mean Score) hyperpnea [1, 21]: 0.0
- Clinical observation (Mean Score) Hunched Posture [1, 22]: 0.0
- Clinical observation (Mean Score) Lethergy [1, 22]: 0.0
- Clinical observation (Mean Score) Rough coat [1, 22]: 0.0
- Clinical observation (Mean Score) hyperpnea [1, 22]: 0.0
- Clinical observation (Mean Score) Hunched Posture [1, 23]: 0.0
- Clinical observation (Mean Score) Lethergy [1, 23]: 0.0
- Clinical observation (Mean Score) hyperpnea [1, 23]: 0.0
- Bacteria in treated animals ([1]; day 7, compound 1 at 50 mg/kg): BLOQ
- antibacterial effect in liver and blood compared to vehicle controls ([1]; day 7, p<0.05): significant dose dependent antibacterial effect
- Kidney -Raw data on Vancomycin (32 μg/ml) plates ([1]; 5 mg/kg): 2.73 Log10 CFU/g and 3.23 Log10 CFU/g and 2.66 Log10 CFU/g and 2.94 Log10 CFU/g and 3.34 Log10 CFU/g and 2.68 Log10 CFU/g and 2.59 Log10 CFU/g and 2.54 Log10 CFU/g and 2.75 Log10 CFU/g and BLOQ
- Liver-Raw data on Vancomycin (32 μg/ml) plates ([1]; 5 mg/kg): 2.67 Log10 CFU/g and 2.41 Log10 CFU/g (2×) and 3.42 Log10 CFU/g and 2.33 Log10 CFU/g and 2.39 Log10 CFU/g (2×) and 2.53 Log10 CFU/g and 2.61 Log10 CFU/g and 2.57 Log10 CFU/g
- Spleen -Raw data on Vancomycin (32 μg/ml) plates ([1]; 5 mg/kg): 3.04 Log10 CFU/g and 3.00 Log10 CFU/g and 3.51 Log10 CFU/g and 2.62 Log10 CFU/g and BLOQ (4×) and 2.91 Log10 CFU/g and 3.17 Log10 CFU/g
- Kidney -Raw data on Vancomycin (32 μg/ml) plates ([1]; 50 mg/kg): BLOQ
- Liver-Raw data on Vancomycin (32 μg/ml) plates ([1]; 50 mg/kg): BLOQ
- Spleen -Raw data on Vancomycin (32 μg/ml) plates ([1]; 50 mg/kg): BLOQ
- Blood -Raw data on Vancomycin (32 μg/ml) plates - on day 7 PI ([1]; 5 mg/kg): 1.90 Log10 CFU/g
- Blood -Raw data on Vancomycin (32 μg/ml) plates - on day 7 PI ([1]; 5 mg/kg, 5 mg/kg): BLOQ
- Blood -Raw data on Vancomycin (32 μg/ml) plates - on day 7 PI ([1]; 50 mg/kg): BLOQ
- clinical condition of animals ([1]; treated groups): apparently normal
- IC50 [2]: ~1200 nM
- Dose Esc. Tox mouse iv ([3]; iv): 100 mg/kg
- Dose Esc. Tox mouse PO ([3]; po): 50 mg/kg
